# Experimental data as given in patent US12605423B2, “Peptide inhibitors targeting methyltransfer mechanism of SARS-CoV-2” (United Arab Emirates University, priority 2021, dated 2026).
# “Also recorded” adds a separate entry of the source.
# Tests used:
# IL-6 = format: cell-based; conditions: NCIH1792 (H1792) human lung cells, 10 μM peptide, versus PBS control
smiles,measurement,setting,value
"CSCC[C@H](NC(=O)[C@H](Cc1ccccc1)NC(=O)CNC(=O)[C@H](CO)NC(=O)CNC(=O)[C@H](CCCNC(=N)N)NC(=O)[C@H](CCCNC(=N)N)NC(=O)[C@H](CCCNC(=N)N)NC(=O)[C@H](CCC(N)=O)NC(=O)[C@H](CCCNC(=N)N)NC(=O)[C@H](CCCNC(=N)N)NC(=O)[C@H](CCCCN)NC(=O)[C@H](CCCCN)NC(=O)[C@H](CCCNC(=N)N)NC(=O)CNC(=O)[C@H](Cc1ccc(O)cc1)NC(C)=O)C(=O)N[C@@H](CC(=O)O)C(=O)N[C@@H](CC(C)C)C(=O)N[C@@H](CCCCN)C(=O)NCC(=O)N[C@@H](CCCCN)C(=O)N[C@@H](Cc1ccc(O)cc1)C(N)=O [Peptide P3, FMDLKGKY]",90% Effective Concentration (EC90),SARS-CoV-2,3.3 µM
same,EC90,SARS-CoV-2,3.3 µM
same,IL-6 induction,IL-6,not P2 nor P3; also recorded: does not stimulate IL-6
